Experimental data reported in ChEMBL document CHEMBL3997799, “Synthesis and anti-proliferative activity evaluation of novel benzo[d][1,3] dioxoles-fused 1,4-thiazepines” (Eur J Med Chem, 2017).

Legend:
ECa-109 cell line = assay: Antiproliferative activity against human ECA109 cells after 48 hrs by MTT assay; format: functional, cell-based; conditions: ECa-109, 48 h
EC9706 [1] = assay: Antiproliferative activity against human EC9706 cells after 48 hrs by MTT assay; format: functional, cell-based; conditions: EC9706, 48 h
EC9706 [2] = assay: Potency index, ratio of 5-fluorouracil IC50 to test compound IC50 for human EC9706 cells; format: functional
[3] = Potency index, ratio of 5-fluorouracil IC50 to test compound IC50 for human ECA109 cells; format: functional

| Compound | IC50 (ECa-109 cell line) [µM] | IC50 (EC9706 [1]) [µM] | Ratio IC50 (EC9706 [2]) | Ratio IC50 [3] |
| --- | --- | --- | --- | --- |
| COc1cc(C2SCC(=O)Nc3cc4c(cc32)OCO4)cc(OC)c1OC (stereo not given) | 130 | 70.9 |  |  |
| CC1SC(c2ccc([N+](=O)[O-])cc2)c2cc3c(cc2NC1=O)OCO3 (stereo not given) | 50.4 | 34.7 |  |  |
| O=C1CSC(c2ccco2)c2cc3c(cc2N1)OCO3 (stereo not given) | 42 | 30.3 |  |  |
| CC1SC(c2cccc([N+](=O)[O-])c2)c2cc3c(cc2NC1=O)OCO3 (stereo not given) | 106 | 88.4 |  |  |
| O=C1CSC(c2ccccc2)c2cc3c(cc2N1)OCO3 (stereo not given) | 38.7 | 43.2 |  |  |
| COc1cccc(C2SCC(=O)Nc3cc4c(cc32)OCO4)c1 (stereo not given) | 49.6 | 54.6 |  |  |
| COc1cc(OC)cc(C2SCC(=O)Nc3cc4c(cc32)OCO4)c1 (stereo not given) | 30.3 | 11.7 |  |  |
| CC1SC(c2ccc(Cl)cc2)c2cc3c(cc2NC1=O)OCO3 (stereo not given) | > 200 | > 200 |  |  |
| O=C1CSC(c2cccc([N+](=O)[O-])c2)c2cc3c(cc2N1)OCO3 (stereo not given) | > 200 | > 200 |  |  |
| COc1ccc(C2SCC(=O)Nc3cc4c(cc32)OCO4)cc1 (stereo not given) | 33 | 16.4 |  |  |
| O=C1CSC(c2ccc(F)cc2)c2cc3c(cc2N1)OCO3 (stereo not given) | > 200 | 106 |  |  |
| O=C1CSC(c2cccs2)c2cc3c(cc2N1)OCO3 (stereo not given) | 95.5 | 69.6 |  |  |
| Cc1ccccc1C1SCC(=O)Nc2cc3c(cc21)OCO3 (stereo not given) | 55.5 | 33.5 |  |  |
| COc1ccc(C2SCC(=O)Nc3cc4c(cc32)OCO4)cc1Br (stereo not given) | 16.2 | 8.23 | 2 - 3 | 2 - 3 |
| Cc1ccc(C2SCC(=O)Nc3cc4c(cc32)OCO4)cc1 (stereo not given) | 27.7 | 17.1 |  |  |
| O=C1CSC(c2ccc([N+](=O)[O-])cc2)c2cc3c(cc2N1)OCO3 (stereo not given) | 42.3 | 24.9 |  |  |
| Cc1ccc(C2SC(C)C(=O)Nc3cc4c(cc32)OCO4)cc1 (stereo not given) | > 200 | > 200 |  |  |
| O=C1CSC(c2ccc(Cl)cc2)c2cc3c(cc2N1)OCO3 (stereo not given) | 36.2 | 34.4 |  |  |
| O=c1[nH]cc(F)c(=O)[nH]1 [FLUOROURACIL] | 30.2 | 23.3 |  |  |
